According to patent US9012398B2, “Acylated exendin-4 compounds” (priority 2006, dated 2015):
Where two headings read alike, the source gives them in different places. Starred links: 1 amine or outer side, 2 acyl side, 3 side chain; linkers in the order of their positions; H or OH if unused. Residues, ends and D or L forms follow the SMILES beside them. Groups on a side chain read outwards from the residue. *: point of attachment. Palmitoyl(16-(5-tetrazolyl)) = O=C(CCCCCCCCCCCCCCCc1nnn[nH]1)*; γGlu = O=C(O)[C@H](CCC(=O)[*:2])N[*:1]; Stearoyl = CCCCCCCCCCCCCCCCCC(=O)*; AEEA = NCCOCCOCC(=O)O

How the values were obtained:
human GLP-1 receptor = biological target: T1, human GLP-1 receptor (Homo sapiens, UniProt P43220); assay: Functional receptor assay: cAMP formation in plasma membranes of BHK cells expressing the cloned human GLP-1 receptor (GLP1cAMPma); assay type: biochemical
T1 construct: expressed in transfected cells; host or cells: BHK cells, clone BHK-467-12A; plasma membrane preparation
T1 sequence (P43220 24-463): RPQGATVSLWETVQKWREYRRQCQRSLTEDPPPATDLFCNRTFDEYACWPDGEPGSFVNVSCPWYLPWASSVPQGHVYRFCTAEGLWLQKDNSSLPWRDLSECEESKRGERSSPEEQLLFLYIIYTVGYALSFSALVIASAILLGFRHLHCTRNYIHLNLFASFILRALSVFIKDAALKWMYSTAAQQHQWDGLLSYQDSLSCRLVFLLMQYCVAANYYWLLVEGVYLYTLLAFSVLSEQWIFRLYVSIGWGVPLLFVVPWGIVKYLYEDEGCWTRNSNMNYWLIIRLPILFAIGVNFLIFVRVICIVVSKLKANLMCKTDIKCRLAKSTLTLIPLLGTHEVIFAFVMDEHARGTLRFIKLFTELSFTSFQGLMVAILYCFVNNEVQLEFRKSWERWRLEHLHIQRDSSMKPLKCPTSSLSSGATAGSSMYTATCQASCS
Procedure, shortened: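 cAMP formation was read by AlphaScreen after a 3 h room-temperature incubation of agonist with human GLP-1 receptor BHK membranes (6 μg/well). The pH 7.4 buffer held 10 mM MgCl2, 1 mM ATP, 1 μM GTP and 0.5 mM IBMX. EC50 values were estimated by four-parameter logistic regression.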

db/db mice = assay: Pharmacodynamic study using db/db mice (blood glucose after subcutaneous dosing); assay type: in vivo; settings: 30 nmol/kg subcutaneous
Protocol: The efficacy and duration of action were measured after dosing of 30 nmol/kg to db/db mice. Male db/db mice were shipped from Taconic, Denmark at the age of 8-10 weeks. From the time of arrival, the mice were housed under standard conditions but at 24° C. The mice were kept 10 per cage until experimentation with free access to standard chow (Altromin, Brogaarden APS., Denmark) and tap water at a normal day: light cycle (light on at 6 am). […] After this, the mice were euthanized.
After an acclimatisation period of 1 week, the blood glucose was measured by sampling from the tail tip capillary. In brief, 5 μl blood was sampled in heparinised glass capillary tubes and immediately suspended in 250 μl EBIO buffer solution (Eppendorf, Germany) in an 1.5 ml Eppendorf tube. The blood glucose concentration was measured by the glucose oxidase method at the EBIO Plus Auto analyser (Eppendorf, Germany).
The cut of value for blood glucose was 10 mM. When evaluating the mice, it was considered essential, that all 42 mice entering the experiment had blood glucose values above 10 mM, but also that the inter-mice variance was small. Therefore, if many mice were not severely diabetic, whereas some were, the start up of experiments was postponed one week and new basal blood glucose measurements were made.
Based on the basal blood glucose values, the mice were allocated to 7 groups of n=6 with matching group mean blood glucose values.
On the day of testing the basal blood glucose morning values were assessed as described above and the basal body weight of each mouse was assessed. A time 0, the compound was dosed subcutaneously in the scruff of the neck (dosing volume app. 300 μl/50 g mouse).
The blood glucose values were followed up to 48 hours (time 1, 3, 6, 24 and 48 h) and the terminal body weight was assessed.
All data were entered into Graphpad Prism where mean blood glucose and mean delta body weights were calculated.

| EC50 (human GLP-1 receptor; cAMP, membranes with human GLP-1 receptor, mean value, read-out: GLP1cAMPma (3693) [EC50 (nM)] Mean Value) | SMILES | Delta AUC for blood glucose after 30 nmol/kg in db/db mice, 48 hours (db/db mice) | EC50 (human GLP-1 receptor) |
| --- | --- | --- | --- |
| 0.61 nM | CC[C@H](C)[C@H](NC(=O)[C@H](Cc1ccccc1)NC(=O)[C@H](CC(C)C)NC(=O)[C@H](CCCNC(=N)N)NC(=O)[C@@H](NC(=O)[C@H](C)NC(=O)[C@H](CCC(=O)O)NC(=O)[C@H](CCC(=O)O)NC(=O)[C@H](CCC(=O)O)NC(=O)[C@H](CC(C)C)NC(=O)[C@H](CCC(N)=O)NC(=O)[C@H](CCCNC(=N)N)NC(=O)[C@H](CO)NC(=O)[C@H](CC(C)C)NC(=O)[C@H](CC(=O)O)NC(=O)[C@H](CO)NC(=O)[C@@H](NC(=O)[C@H](Cc1ccccc1)NC(=O)[C@@H](NC(=O)CNC(=O)[C@H](CCC(=O)O)NC(=O)CNC(=O)[C@@H](N)Cc1c[nH]cn1)[C@@H](C)O)[C@@H](C)O)C(C)C)C(=O)N[C@@H](CCC(=O)O)C(=O)N[C@@H](Cc1c[nH]c2ccccc12)C(=O)N[C@@H](CC(C)C)C(=O)N[C@@H](CCCNC(=N)N)C(=O)N[C@@H](CC(N)=O)C(=O)NCC(=O)NCC(=O)N1CCC[C@H]1C(=O)N[C@@H](CO)C(=O)N[C@@H](CO)C(=O)N[C@@H](CCCCNC(=O)COCCOCCNC(=O)CC[C@H](NC(=O)CCCCCCCCCCCCCCCc1nnn[nH]1)C(=O)O)C(=O)N[C@@H](C)C(=O)N1CCC[C@H]1C(=O)N1CCC[C@H]1C(=O)N1CCC[C@H]1C(=O)N[C@@H](CO)C(N)=O [Example 9] (H-HGEGTFTSDLSRQLEEEAVRLFIEWLRNGGPSSK([AEEA-γGlu-Palmitoyl(16-(5-tetrazolyl))])APPPS-NH2) | −395 ± 222, *** mM × hour | – |
| – | CCCCCCCCCCCCCCCCCC(=O)NCCOCCOCC(=O)NCCOCCOCC(=O)NCCOCCOCC(=O)NCCCC[C@H](NC(=O)[C@@H](NC(=O)[C@H](C)NC(=O)[C@H](CCC(=O)O)NC(=O)[C@H](CCC(=O)O)NC(=O)[C@H](CCC(=O)O)NC(=O)[C@H](CC(C)C)NC(=O)[C@H](CCC(N)=O)NC(=O)[C@H](CCCNC(=N)N)NC(=O)[C@H](CO)NC(=O)[C@H](CC(C)C)NC(=O)[C@H](CC(=O)O)NC(=O)[C@H](CO)NC(=O)[C@@H](NC(=O)[C@H](Cc1ccccc1)NC(=O)[C@@H](NC(=O)CNC(=O)[C@H](CCC(=O)O)NC(=O)CNC(=O)[C@@H](N)Cc1c[nH]cn1)[C@@H](C)O)[C@@H](C)O)C(C)C)C(=O)N[C@@H](CC(C)C)C(=O)N[C@@H](Cc1ccccc1)C(=O)N[C@H](C(=O)N[C@@H](CCC(=O)O)C(=O)N[C@@H](Cc1c[nH]c2ccccc12)C(=O)N[C@@H](CC(C)C)C(=O)N[C@@H](CCCNC(=N)N)C(=O)N[C@@H](CCCNC(=N)N)C(=O)NCC(=O)NCC(=O)N1CCC[C@H]1C(=O)N[C@@H](CO)C(=O)N[C@@H](CO)C(=O)NCC(=O)N[C@@H](C)C(=O)N1CCC[C@H]1C(=O)N1CCC[C@H]1C(=O)N1CCC[C@H]1C(=O)N[C@@H](CO)C(N)=O)[C@@H](C)CC [Example 5, N-ε^20-(2-(2-(2-(2-(2-(2-(2-(2-(2-(Octadecanoylamino)ethoxy)ethoxy)acetylamino)ethoxy)ethoxy)acetyl-amino)ethoxy)ethoxy)acety))[Arg^12,27,28,Leu^14,Lys^20 Exendin-4(1-39)amide] (H-HGEGTFTSDLSRQLEEEAVK([AEEA-AEEA-AEEA-Stearoyl])LFIEWLRRGGPSSGAPPPS-NH2; N-terminus assumed) | −410 ± 111, *** mM × hour | 0.007 nM |
